Data published in the supplement of paper PMC7017272.
± gives the standard deviation of the averaged measurements.

Experiments:
Conditions in all cases: treatment time: 3 days
UT-SCC-42B [1] = experiment: drug sensitivity score (DSS); higher = more sensitive; extreme values may be limits of the assay
Method in brief: (§1)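 HPV-negative HNSCC cell lines were seeded at 500 cells/well in 384-well plates on plastic, on Matrigel- or Myogel-coated wells (500 µg/mL), or embedded in Matrigel or Myogel plus rat collagen I. Compounds were given at five 10-fold concentrations for 3 days, and viability was read by CellTiter-Glo 2.0 luminescence. Signals were normalised to vehicle (0.1% DMSO) and cell-killing control wells. Percent-inhibition dose–response curves were fitted in the FIMM pipeline to derive IC50, maximal inhibition and drug sensitivity score.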

UT-SCC-106A = experiment: as above
Method in brief: as §1

UT-SCC-28 = experiment: as above
Method in brief: as §1

UT-SCC-8 = experiment: as above
Method in brief: as §1

UT-SCC-44 = experiment: as above
Method in brief: as §1

UT-SCC-40 = experiment: as above
Method in brief: as §1

UT-SCC-14 [2] = experiment: as above
Method in brief: as §1

UT-SCC-73 = experiment: as above
Method in brief: as §1

UT-SCC-42A = experiment: as above
Method in brief: as §1

UT-SCC-81 [3] = experiment: as above
Method in brief: as §1

UT-SCC-24B = experiment: as above
Method in brief: as §1

UT-SCC-24A [4] = experiment: maximal % inhibition of viability relative to DMSO; higher = stronger effect
Experimental: (§2)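 HNSCC cell lines (500 cells/well, 384-well) were cultured on plastic, on top of (2D) or embedded (3D) in Matrigel or human leiomyoma matrix Myogel (500 ug/mL; Myogel 3D mixed with rat collagen I). Cells were treated for 3 days with 5 ten-fold concentrations of each drug, and viability was read by CellTiter-Glo. Viability was normalised to DMSO (0% inhibition) and 100 uM benzethonium chloride (100% inhibition) controls and fitted with the FIMM DSRT pipeline to give IC50 (nM), maximal % inhibition and the drug sensitivity score (DSS). Suffixes _1/_2/_3 on drug names are replicates.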

UT-SCC-24A [5] = experiment: drug sensitivity score (DSS); higher = more sensitive
Experimental: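 HNSCC cell lines (500 cells/well, 384-well) were cultured on plastic, on top of (2D) or embedded (3D) in Matrigel or human leiomyoma matrix Myogel (500 ug/mL; Myogel 3D mixed with rat collagen I). Cells were treated for 3 days with 5 ten-fold concentrations of each drug, and viability was read by CellTiter-Glo. Suffixes _1/_2/_3 on drug names are replicates.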

UT-SCC-24A [6] = experiment: relative IC50 (midpoint of the fitted curve; maximal inhibition may be below 50%); higher = less potent
Experimental: as §2

UT-SCC-42B [7] = experiment: maximal % inhibition of viability relative to DMSO; higher = stronger effect
Experimental: as §2, with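 “DMSO” for “DMSO (0% inhibition)”, “and” for “and 100 uM”, “chloride” for “chloride (100% inhibition)”, “DSS.” for “the drug sensitivity score (DSS).”, “_1/_2/_3” for “_1/_2/_3 on drug names”, “replicates. Only inhibition-mode (IC50) fits are kept.” for “replicates.”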

UT-SCC-14 [8] = experiment: as above
Experimental: as §2, with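 “DMSO” for “DMSO (0% inhibition)”, “and” for “and 100 uM”, “chloride” for “chloride (100% inhibition)”, “DSS.” for “the drug sensitivity score (DSS).”, “_1/_2/_3” for “_1/_2/_3 on drug names”, “replicates. Only inhibition-mode (IC50) fits are kept.” for “replicates.”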

UT-SCC-81 [9] = experiment: as above
Experimental: as §2, with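 “DMSO” for “DMSO (0% inhibition)”, “and” for “and 100 uM”, “chloride” for “chloride (100% inhibition)”, “DSS.” for “the drug sensitivity score (DSS).”, “_1/_2/_3” for “_1/_2/_3 on drug names”, “replicates. Only inhibition-mode (IC50) fits are kept.” for “replicates.”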

[10] = culture condition: embedded in Matrigel
[11] = culture condition: on top of Matrigel
[12] = culture condition: on top of Myogel
[13] = culture condition: plastic 2D (no matrix)
[14] = culture condition: embedded in Myogel + collagen I

## COc1ncc(-c2ccc3nccc(-c4ccnnc4)c3c2)cc1NS(=O)(=O)c1ccc(F)cc1F [Omipalisib]
UT-SCC-42B [1]; [10]
  drug sensitivity score: 24.7 ± 1.2 DSS
UT-SCC-42B [1]; [11]
  drug sensitivity score: 18.3 ± 1.2 DSS
UT-SCC-42B [1]; [12]
  drug sensitivity score: 14.1 ± 1.2 DSS
UT-SCC-42B [1]; [13]
  drug sensitivity score: 15.2 ± 0.4 DSS
UT-SCC-106A; [10]
  drug sensitivity score: 22.8 ± 0.99 DSS
UT-SCC-106A; [14]
  drug sensitivity score: 15.4 ± 0.89 DSS
UT-SCC-106A; [11]
  drug sensitivity score: 22.33 ± 0.15 DSS
UT-SCC-106A; [12]
  drug sensitivity score: 15 ± 1.2 DSS
UT-SCC-106A; [13]
  drug sensitivity score: 21.9 ± 0.46 DSS
UT-SCC-28; [10]
  drug sensitivity score: 18.7 ± 3.2 DSS
UT-SCC-28; [14]
  drug sensitivity score: 18.7 ± 1.8 DSS
UT-SCC-28; [11]
  drug sensitivity score: 18.1 ± 1.6 DSS
UT-SCC-28; [13]
  drug sensitivity score: 16.8 ± 0.21 DSS
UT-SCC-8; [10]
  drug sensitivity score: 27.5 ± 1 DSS
UT-SCC-8; [14]
  drug sensitivity score: 24.1 ± 4.4 DSS
UT-SCC-8; [11]
  drug sensitivity score: 24.5 ± 0.1 DSS
UT-SCC-8; [12]
  drug sensitivity score: 23.7 ± 0.44 DSS
UT-SCC-8; [13]
  drug sensitivity score: 25 ± 0.83 DSS
UT-SCC-44; [10]
  drug sensitivity score: 15.7 ± 2.2 DSS
UT-SCC-44; [14]
  drug sensitivity score: 13.9 ± 1.6 DSS
UT-SCC-44; [11]
  drug sensitivity score: 14 ± 1.9 DSS
UT-SCC-44; [12]
  drug sensitivity score: 14.2 ± 2 DSS
UT-SCC-44; [13]
  drug sensitivity score: 12.4 ± 0.21 DSS
UT-SCC-40; [10]
  drug sensitivity score: 27.3 ± 0.47 DSS
UT-SCC-40; [14]
  drug sensitivity score: 21.5 ± 0.32 DSS
UT-SCC-40; [11]
  drug sensitivity score: 26.4 ± 0.84 DSS
UT-SCC-40; [12]
  drug sensitivity score: 19.2 ± 1.1 DSS
UT-SCC-40; [13]
  drug sensitivity score: 20.6 ± 0.46 DSS
UT-SCC-14 [2]; [10]
  drug sensitivity score: 25.2 ± 1.2 DSS
UT-SCC-14 [2]; [14]
  drug sensitivity score: 20.9 ± 3.1 DSS
UT-SCC-14 [2]; [11]
  drug sensitivity score: 23.8 ± 0.57 DSS
UT-SCC-14 [2]; [12]
  drug sensitivity score: 20.6 ± 0.78 DSS
UT-SCC-14 [2]; [13]
  drug sensitivity score: 23.7 ± 2.6 DSS
UT-SCC-73; [10]
  drug sensitivity score: 24.13 ± 0.21 DSS
UT-SCC-73; [14]
  drug sensitivity score: 23.1 ± 3.8 DSS
UT-SCC-73; [11]
  drug sensitivity score: 23.83 ± 0.15 DSS
UT-SCC-73; [12]
  drug sensitivity score: 21.6 ± 0.47 DSS
UT-SCC-73; [13]
  drug sensitivity score: 22.2 ± 0.8 DSS
UT-SCC-42A; [10]
  drug sensitivity score: 20.8 ± 3.1 DSS
UT-SCC-42A; [14]
  drug sensitivity score: 18.2 ± 0.85 DSS
UT-SCC-42A; [11]
  drug sensitivity score: 21.1 ± 2.2 DSS
UT-SCC-42A; [12]
  drug sensitivity score: 18.6 ± 0.96 DSS
UT-SCC-42A; [13]
  drug sensitivity score: 21.6 ± 2.3 DSS
UT-SCC-81 [3]; [10]
  drug sensitivity score: 28.53 ± 0.15 DSS
UT-SCC-81 [3]; [14]
  drug sensitivity score: 21.9 ± 1.9 DSS
UT-SCC-81 [3]; [11]
  drug sensitivity score: 26.8 ± 0.32 DSS
UT-SCC-81 [3]; [12]
  drug sensitivity score: 21 ± 0.1 DSS
UT-SCC-81 [3]; [13]
  drug sensitivity score: 22.6 ± 1.5 DSS
UT-SCC-24B; [10]
  drug sensitivity score: 22.3 ± 0.72 DSS
UT-SCC-24B; [14]
  drug sensitivity score: 22.9 ± 1.3 DSS
UT-SCC-24B; [11]
  drug sensitivity score: 21.7 ± 0.58 DSS
UT-SCC-24B; [12]
  drug sensitivity score: 19.4 ± 0.7 DSS
UT-SCC-24B; [13]
  drug sensitivity score: 21.6 ± 0.49 DSS
UT-SCC-24A [4]; [10]
  maximal % inhibition of viability: 95.2 ± 1.4%
UT-SCC-24A [4]; [14]
  maximal % inhibition of viability: 89.2 ± 1.7%
UT-SCC-24A [4]; [11]
  maximal % inhibition of viability: 92 ± 1.5%
UT-SCC-24A [4]; [12]
  maximal % inhibition of viability: 85.8 ± 0.99%
UT-SCC-24A [4]; [13]
  maximal % inhibition of viability: 91.6 ± 0.95%
UT-SCC-24A [5]; [10]
  drug sensitivity score: 27 ± 2.8 DSS
UT-SCC-24A [5]; [14]
  drug sensitivity score: 22.6 ± 1.6 DSS
UT-SCC-24A [5]; [11]
  drug sensitivity score: 25.5 ± 1.2 DSS
UT-SCC-24A [5]; [12]
  drug sensitivity score: 20.4 ± 1.8 DSS
UT-SCC-24A [5]; [13]
  drug sensitivity score: 25 ± 1.6 DSS
UT-SCC-24A [6]; [10]
  relative IC50: 4.17 nM
UT-SCC-24A [6]; [14]
  relative IC50: 7 nM
UT-SCC-24A [6]; [11]
  relative IC50: 5.02 nM
UT-SCC-24A [6]; [12]
  relative IC50: 10.1 nM
UT-SCC-24A [6]; [13]
  relative IC50: 5.44 nM
UT-SCC-42B [7]; [10]
  maximal % inhibition of viability: 96.3 ± 0.7%
UT-SCC-42B [7]; [11]
  maximal % inhibition of viability: 91.1 ± 1.4%
UT-SCC-42B [7]; [12]
  maximal % inhibition of viability: 84 ± 1.2%
UT-SCC-42B [7]; [13]
  maximal % inhibition of viability: 86.7 ± 1.1%
UT-SCC-14 [8]; [10]
  maximal % inhibition of viability: 94.8 ± 1.1%
UT-SCC-14 [8]; [14]
  maximal % inhibition of viability: 92.2 ± 1.3%
UT-SCC-14 [8]; [11]
  maximal % inhibition of viability: 93.9 ± 1.9%
UT-SCC-14 [8]; [12]
  maximal % inhibition of viability: 90 ± 2.3%
UT-SCC-14 [8]; [13]
  maximal % inhibition of viability: 92.47 ± 0.81%
UT-SCC-81 [9]; [10]
  maximal % inhibition of viability: 97.77 ± 0.51%
UT-SCC-81 [9]; [14]
  maximal % inhibition of viability: 89.1 ± 0.91%
UT-SCC-81 [9]; [11]
  maximal % inhibition of viability: 96.83 ± 0.76%
UT-SCC-81 [9]; [12]
  maximal % inhibition of viability: 90.3 ± 1.4%
UT-SCC-81 [9]; [13]
  maximal % inhibition of viability: 91.9 ± 2.2%
